Measurements reported in patent US12304890B2, “R-type pyridyloxycarboxylic acid, salt and ester derivative thereof, and preparation method therefor, and herbicidal composition and application thereof” (Qingdao Kingagroot Chemical Compound Co., Ltd., priority 2018, dated 2025).

What was measured:
Type in all cases: in vivo
[1] = test system: Monocotyledonous and dicotyledonous weed seeds and main crop seeds; assay: Post-emergence test experiment, other weeds and crops (Table 4, 1000 g a.i./ha); conditions: 3 weeks in greenhouse, fresh weight inhibition
How it was run: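 Weed and crop seeds (wheat, corn, rice, soybean, cotton, oilseed, millet, sorghum) sown in soil pots in a greenhouse and sprayed at 2-3 leaf stage, 2 weeks after sowing. Compound in acetone/tween-80 with methyl oleate concentrate (1.5 L/ha) as synergist. Effect recorded as fresh-weight growth inhibition rate.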

Digitaria sanguinalis = assay: Post-emergence test experiment, Digitaria sanguinalis; conditions: 1000 g a.i./ha, 3 weeks in greenhouse, fresh weight inhibition
How it was run: (§1)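 Read-out is fresh weight inhibition rate, taken 3 weeks after spraying. Treatment was applied to plants at the 2-3 leaf stage, grown from seed under 0.5-2 cm soil in greenhouse pots. Spray solution contained acetone, tween-80 and methyl oleate emulsible concentrate at 1.5 liters per hectare.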

Echinochloa crusgalli = assay: Post-emergence test experiment, Echinochloa crusgalli; conditions: 1000 g a.i./ha, 3 weeks in greenhouse, fresh weight inhibition
How it was run: as §1

SMILES	Activity level (growth inhibition rate), Abutilon theophrasti Medic. [1]	Activity level (growth inhibition rate), Galium aparine [1]	Activity level (growth inhibition rate), Monochoria Vaginalis [1]	Activity level (growth inhibition rate), Digitaria sanguinalis (Digitaria sanguinalis)	Activity level (growth inhibition rate), Echinochloa crusgalli (Echinochloa crusgalli)
COC(=O)[C@@H](C)Oc1nc(F)c(Cl)c(NC(=O)c2ccccc2)c1Cl [Compound 2-379]	5 (Level 5: the growth inhibition rate is greater than 85%)	5 (Level 5: the growth inhibition rate is greater than 85%)	5 (Level 5: the growth inhibition rate is greater than 85%)	5 (Level 5: the growth inhibition rate is greater than 85%)	5 (Level 5: the growth inhibition rate is greater than 85%)
Cc1cccc(COC(=O)C(C)Oc2nc(F)c(Cl)c(N)c2Cl)c1 (stereo not drawn) [Compound 2-304]	5 (Level 5: the growth inhibition rate is greater than 85%)	5 (Level 5: the growth inhibition rate is greater than 85%)	5 (Level 5: the growth inhibition rate is greater than 85%)	5 (Level 5: the growth inhibition rate is greater than 85%)	5 (Level 5: the growth inhibition rate is greater than 85%)
CC(C)CCCCCOC(=O)[C@@H](C)Oc1nc(F)c(Cl)c(N)c1Cl [Compound 2-159]	5 (Level 5: the growth inhibition rate is greater than 85%)	5 (Level 5: the growth inhibition rate is greater than 85%)	5 (Level 5: the growth inhibition rate is greater than 85%)	5 (Level 5: the growth inhibition rate is greater than 85%)	5 (Level 5: the growth inhibition rate is greater than 85%)
CCCCCCC(C)SC(=O)[C@@H](C)Oc1nc(F)c(Cl)c(N)c1Cl (stereo partly drawn) [Compound 2-164]	5 (Level 5: the growth inhibition rate is greater than 85%)	5 (Level 5: the growth inhibition rate is greater than 85%)	5 (Level 5: the growth inhibition rate is greater than 85%)	5 (Level 5: the growth inhibition rate is greater than 85%)	5 (Level 5: the growth inhibition rate is greater than 85%)
CC(Oc1nc(F)c(Cl)c(N)c1Cl)C(=O)OCc1ccccc1F (stereo not drawn) [Compound 2-308]	5 (Level 5: the growth inhibition rate is greater than 85%)	5 (Level 5: the growth inhibition rate is greater than 85%)	5 (Level 5: the growth inhibition rate is greater than 85%)	5 (Level 5: the growth inhibition rate is greater than 85%)	5 (Level 5: the growth inhibition rate is greater than 85%)
C[C@@H](Oc1nc(F)c(Cl)c(N)c1Cl)C(=O)OCC(F)(F)F [Compound 2-281]	5 (Level 5: the growth inhibition rate is greater than 85%)	5 (Level 5: the growth inhibition rate is greater than 85%)	5 (Level 5: the growth inhibition rate is greater than 85%)	5 (Level 5: the growth inhibition rate is greater than 85%)	5 (Level 5: the growth inhibition rate is greater than 85%)
Cc1ccccc1OC(=O)[C@@H](C)Oc1nc(F)c(Cl)c(N)c1Cl [Compound 2-355]	5 (Level 5: the growth inhibition rate is greater than 85%)	5 (Level 5: the growth inhibition rate is greater than 85%)	5 (Level 5: the growth inhibition rate is greater than 85%)	5 (Level 5: the growth inhibition rate is greater than 85%)	5 (Level 5: the growth inhibition rate is greater than 85%)
CC(Oc1nc(F)c(Cl)c(N)c1Cl)C(=O)OCC(F)(F)C(F)(F)F (stereo not drawn) [Compound 2-282]	5 (Level 5: the growth inhibition rate is greater than 85%)	5 (Level 5: the growth inhibition rate is greater than 85%)	5 (Level 5: the growth inhibition rate is greater than 85%)	5 (Level 5: the growth inhibition rate is greater than 85%)	5 (Level 5: the growth inhibition rate is greater than 85%)
C1COCCN1.CC(Oc1nc(F)c(Cl)c(N)c1Cl)C(=O)O (stereo not drawn) [Compound 2-24]	5 (Level 5: the growth inhibition rate is greater than 85%)	5 (Level 5: the growth inhibition rate is greater than 85%)	5 (Level 5: the growth inhibition rate is greater than 85%)	5 (Level 5: the growth inhibition rate is greater than 85%)	5 (Level 5: the growth inhibition rate is greater than 85%)
CCCCCCCCCCSC(=O)[C@@H](C)Oc1nc(F)c(Cl)c(N)c1Cl [Compound 2-196]	5 (Level 5: the growth inhibition rate is greater than 85%)	5 (Level 5: the growth inhibition rate is greater than 85%)	5 (Level 5: the growth inhibition rate is greater than 85%)	5 (Level 5: the growth inhibition rate is greater than 85%)	5 (Level 5: the growth inhibition rate is greater than 85%)
CC(Oc1nc(F)c(Cl)c(N)c1Cl)C(=O)O.N (stereo not drawn) [Compound 2-3]	5 (Level 5: the growth inhibition rate is greater than 85%)	5 (Level 5: the growth inhibition rate is greater than 85%)	5 (Level 5: the growth inhibition rate is greater than 85%)	5 (Level 5: the growth inhibition rate is greater than 85%)	5 (Level 5: the growth inhibition rate is greater than 85%)
COC(=O)C(NC(=O)OC(C)(C)C)OC(=O)C(C)Oc1nc(F)c(Cl)c(N)c1Cl (stereo not drawn) [Compound 2-372]	5 (Level 5: the growth inhibition rate is greater than 85%)	5 (Level 5: the growth inhibition rate is greater than 85%)	5 (Level 5: the growth inhibition rate is greater than 85%)	5 (Level 5: the growth inhibition rate is greater than 85%)	5 (Level 5: the growth inhibition rate is greater than 85%)
